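Cells were grown in 96-well plates and exposed to each compound for 48 hours at five concentrations; endpoints were interpolated linearly between bracketing concentrations, or set to the highest concentration if not reached. GI50 is the concentration that inhibits growth by half.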 Active and inactive are the calls of the source. No stated cut-off is given here; in the data, active = GI50 up to about 1.1 µM and inactive = higher. Where a SMILES comes first, the peptide text is derived from it. The star is where a group is joined. Cbz = O=C(OCc1ccccc1)*
Columns and labels:
Test in all cases: DTP human tumour cell line panel, 48 h
LOX IMVI = system: LOX IMVI
SK-MEL-5 = system: SK-MEL-5
MCF7 = system: MCF7
NCI-H23 = system: NCI-H23
NCI/ADR-RES = system: NCI/ADR-RES
T47D = system: T47D
COLO 205 = system: COLO 205
SF-539 = system: SF-539
UACC-62 = system: UACC-62
HOP-62 = system: HOP-62
NCI-H226 = system: NCI-H226
CCRF-CEM = system: CCRF-CEM
KM12 = system: KM12
HT-29 = system: HT-29
OVCAR-5 = system: OVCAR-5
SW-620 = system: SW-620
OVCAR-3 = system: OVCAR-3
SK-MEL-2 = system: SK-MEL-2
UO-31 = system: UO-31
A498 = system: A498

| Compound | GI50 (LOX IMVI) | GI50 (SK-MEL-5) | GI50 (MCF7) | GI50 (NCI-H23) | GI50 (NCI/ADR-RES) | GI50 (T47D) | GI50 (COLO 205) | GI50 (SF-539) | GI50 (UACC-62) | GI50 (HOP-62) | GI50 (NCI-H226) | GI50 (CCRF-CEM) | GI50 (KM12) | GI50 (HT-29) | GI50 (OVCAR-5) | GI50 (SW-620) | GI50 (OVCAR-3) | GI50 (SK-MEL-2) | GI50 (UO-31) | GI50 (A498) |
| --- | --- | --- | --- | --- | --- | --- | --- | --- | --- | --- | --- | --- | --- | --- | --- | --- | --- | --- | --- | --- |
| O=c1oc2c/c(=C\c3ccccn3)c(=O)c3cccc1c3-2 | 29 µM (inactive) | > 100 µM (inactive) | > 100 µM (inactive) | > 100 µM (inactive) | 52.7 µM (inactive) | 38.1 µM (inactive) | > 100 µM (inactive) | 19.7 µM (inactive) | > 100 µM (inactive) | 15.4 µM (inactive) | 28.3 µM (inactive) | 33.8 µM (inactive) | 50.4 µM (inactive) | > 100 µM (inactive) | > 100 µM (inactive) | > 100 µM (inactive) | 7.59 µM (inactive) | – | – | – |
| COc1ccc2c(c1)CCc1[nH]c3ccccc3c1CCCC2 | > 10 µM (inactive) | > 10 µM (inactive) | > 10 µM (inactive) | > 10 µM (inactive) | > 10 µM (inactive) | > 10 µM (inactive) | > 10 µM (inactive) | > 10 µM (inactive) | > 10 µM (inactive) | > 10 µM (inactive) | – | > 10 µM (inactive) | > 10 µM (inactive) | > 10 µM (inactive) | > 10 µM (inactive) | > 10 µM (inactive) | > 10 µM (inactive) | – | – | – |
| Cc1ccc(O)c(-c2cscn2)c1 | 27.7 µM (inactive) | 23.7 µM (inactive) | 39.9 µM (inactive) | 39.4 µM (inactive) | 51.9 µM (inactive) | – | 12.5 µM (inactive) | 30.8 µM (inactive) | 55 µM (inactive) | 33.3 µM (inactive) | – | 0.37 µM (active) | – | 62.5 µM (inactive) | 11.2 µM (inactive) | 51.5 µM (inactive) | 35.2 µM (inactive) | 64 µM (inactive) | 22.8 µM (inactive) | 15.3 µM (inactive) |
| CN(C)CCC(=O)N1C/C(=C/c2ccccc2)C(=O)/C(=C\c2ccccc2)C1 | 0.436 µM (active) | 1.45 µM (inactive) | 0.349 µM (active) | 2.29 µM (inactive) | – | 4.82 µM (inactive) | 2.24 µM (inactive) | 3.91 µM (inactive) | 1.53 µM (inactive) | 7.31 µM (inactive) | 5.55 µM (inactive) | 0.191 µM (active) | 0.55 µM (active) | 0.679 µM (active) | 2.6 µM (inactive) | 0.275 µM (active) | 2.59 µM (inactive) | 2.95 µM (inactive) | 2.36 µM (inactive) | 3.12 µM (inactive) |
| CC(=O)N1C(OCc2ccccc2)CCN1c1ccccc1 (configuration not stated) | > 10 µM (inactive) | > 10 µM (inactive) | – | > 10 µM (inactive) | > 10 µM (inactive) | > 10 µM (inactive) | > 10 µM (inactive) | > 10 µM (inactive) | – | > 10 µM (inactive) | > 10 µM (inactive) | > 10 µM (inactive) | – | > 10 µM (inactive) | > 10 µM (inactive) | > 10 µM (inactive) | > 10 µM (inactive) | > 10 µM (inactive) | > 10 µM (inactive) | – |
| COC(=O)C12C3C4C5C3(C#N)C1C5(C(=O)OC)C42C(=O)N(C(C)C)C(C)C (configuration not stated) | 58.1 µM (inactive) | > 100 µM (inactive) | – | > 100 µM (inactive) | – | – | > 60.4 µM (inactive) | > 100 µM (inactive) | > 100 µM (inactive) | > 100 µM (inactive) | > 100 µM (inactive) | > 46 µM (inactive) | > 100 µM (inactive) | > 100 µM (inactive) | > 100 µM (inactive) | > 26.7 µM (inactive) | > 100 µM (inactive) | > 100 µM (inactive) | > 100 µM (inactive) | > 100 µM (inactive) |
| N#C[C@H]1C(=O)C(c2nc3ccccc3[nH]2)S[C@H]1c1ccccc1 (some centres not stated) | 42 µM (inactive) | 25.2 µM (inactive) | 28.4 µM (inactive) | 27.5 µM (inactive) | 30.9 µM (inactive) | – | 51.5 µM (inactive) | – | 15.3 µM (inactive) | – | 85.3 µM (inactive) | 38.4 µM (inactive) | 44.2 µM (inactive) | 32.2 µM (inactive) | 92.9 µM (inactive) | 32.5 µM (inactive) | 31 µM (inactive) | – | 26.9 µM (inactive) | 22.1 µM (inactive) |
| COc1ccc(OCC(=O)O)c2c1CCCC2=O | > 100 µM (inactive) | > 100 µM (inactive) | – | > 100 µM (inactive) | – | – | > 100 µM (inactive) | > 100 µM (inactive) | 81.3 µM (inactive) | > 100 µM (inactive) | 64.6 µM (inactive) | > 100 µM (inactive) | > 100 µM (inactive) | > 100 µM (inactive) | > 100 µM (inactive) | > 100 µM (inactive) | > 100 µM (inactive) | > 100 µM (inactive) | > 100 µM (inactive) | > 100 µM (inactive) |
| CC1CCSC(N(C(=O)N(C)c2ccccc2)c2ccccc2)=N1 (configuration not stated) | > 100 µM (inactive) | > 100 µM (inactive) | – | > 100 µM (inactive) | – | – | > 100 µM (inactive) | > 100 µM (inactive) | > 100 µM (inactive) | > 100 µM (inactive) | 74.1 µM (inactive) | > 100 µM (inactive) | > 100 µM (inactive) | > 100 µM (inactive) | > 100 µM (inactive) | > 100 µM (inactive) | > 100 µM (inactive) | > 100 µM (inactive) | > 100 µM (inactive) | > 100 µM (inactive) |
| CC[C@@]1(OC(=O)CN(C)C)C(=O)OCc2c1cc1n(c2=O)Cc2cc3ccccc3nc2-1 | 0.0198 µM (active) | 0.0328 µM (active) | 0.00853 µM (active) | 0.0865 µM (active) | 0.0421 µM (active) | – | 0.394 µM (active) | 0.0111 µM (active) | 0.00569 µM (active) | 0.0234 µM (active) | 0.0356 µM (active) | 0.00256 µM (active) | 0.223 µM (active) | 0.129 µM (active) | 0.247 µM (active) | 0.098 µM (active) | 0.32 µM (active) | 0.701 µM (active) | 0.0296 µM (active) | 0.205 µM (active) |
| CCOC(=O)CCC(NC(=O)C(CC(=O)OC)NC(=O)OCc1ccccc1)C(=O)NC(CC(=O)OC)C(=O)NC(CCC(=O)OCC)C(=O)NC(CC(=O)OC)C(=O)NC(CCC(=O)OCC)C(=O)NC(CC(=O)OCC)C(=O)OCC (configuration not stated) (Cbz-D(OMe)E(OEt)D(OMe)E(OEt)D(OMe)E(OEt)D(OEt)-OEt; configuration not given here) | > 100 µM (inactive) | > 100 µM (inactive) | > 100 µM (inactive) | > 100 µM (inactive) | – | > 100 µM (inactive) | – | – | > 100 µM (inactive) | > 100 µM (inactive) | > 100 µM (inactive) | > 100 µM (inactive) | – | > 100 µM (inactive) | > 100 µM (inactive) | > 100 µM (inactive) | > 100 µM (inactive) | > 100 µM (inactive) | > 100 µM (inactive) | 98.9 µM (inactive) |
| CSc1nc(C)c(CCCl)c(Cl)n1 | 29.6 µM (inactive) | 42.1 µM (inactive) | – | > 100 µM (inactive) | > 100 µM (inactive) | > 100 µM (inactive) | 35.2 µM (inactive) | > 100 µM (inactive) | 89.1 µM (inactive) | > 100 µM (inactive) | – | 20.8 µM (inactive) | – | > 100 µM (inactive) | – | 42.6 µM (inactive) | > 100 µM (inactive) | – | > 100 µM (inactive) | > 100 µM (inactive) |
| CC1C(c2ccccc2)NC(c2ccccc2)CC1(N)C#N (configuration not stated) | > 100 µM (inactive) | > 100 µM (inactive) | > 100 µM (inactive) | > 100 µM (inactive) | > 100 µM (inactive) | > 100 µM (inactive) | 43.4 µM (inactive) | > 100 µM (inactive) | 90.6 µM (inactive) | > 100 µM (inactive) | > 100 µM (inactive) | > 100 µM (inactive) | > 100 µM (inactive) | 63.1 µM (inactive) | > 100 µM (inactive) | > 100 µM (inactive) | > 100 µM (inactive) | – | > 100 µM (inactive) | – |
| Brc1ccc2c(-c3csc(-c4c[nH]c5ccccc45)n3)c[nH]c2c1 | 15.5 µM (inactive) | 15.3 µM (inactive) | – | – | 16.8 µM (inactive) | 24.8 µM (inactive) | 12.8 µM (inactive) | 16 µM (inactive) | 18.2 µM (inactive) | 15 µM (inactive) | 14.5 µM (inactive) | 14.7 µM (inactive) | 14.2 µM (inactive) | 15.6 µM (inactive) | 16.1 µM (inactive) | 16.5 µM (inactive) | 13.8 µM (inactive) | – | 14 µM (inactive) | 17 µM (inactive) |
| Cc1c2ccncc2c(C)c2c1[nH]c1ccc(Cl)cc12 | 1.55 µM (inactive) | 4.75 µM (inactive) | 2.17 µM (inactive) | 3.56 µM (inactive) | 1.22 µM (inactive) | – | 2.16 µM (inactive) | 2.44 µM (inactive) | 3.37 µM (inactive) | 3.85 µM (inactive) | 3.17 µM (inactive) | 1.36 µM (inactive) | 1.86 µM (inactive) | 2.2 µM (inactive) | 7.05 µM (inactive) | 1.52 µM (inactive) | 2.2 µM (inactive) | 3.51 µM (inactive) | 3.56 µM (inactive) | 4.46 µM (inactive) |
| COc1ccc(N[S+]([O-])c2cccc(C)c2)cc1 (configuration not stated) | 17.3 µM (inactive) | 25.6 µM (inactive) | 75.5 µM (inactive) | > 100 µM (inactive) | 14 µM (inactive) | – | 59.6 µM (inactive) | 27.8 µM (inactive) | – | 64 µM (inactive) | > 100 µM (inactive) | 48 µM (inactive) | 17.5 µM (inactive) | 92.9 µM (inactive) | > 100 µM (inactive) | 57.5 µM (inactive) | > 100 µM (inactive) | – | 20.4 µM (inactive) | – |
